Results on 57 compounds are retold here after patent publication US7230020B2, “11β-hydroxysteroid dehydrogenase inhibitors” (priority 2003, dated 2007).

In one data set the target is T1, Human 11β HSD1 (Homo sapiens, UniProt P28845).
T1 construct: human hepatic microsomes were obtained from XenoTech, product H0610/Lot 0210078; tissue XenoTech H0610/Lot 0210078; host or cells: human liver (hepatic microsomes)
The data set is described as follows: biochemical. The class given is biochemical. To be noted: for inhibition at 10 µM: read-out: % inhibition of Human 11β HSD1 @10 μM typical sd ± 5% N = 2. The procedure:
Standard Operating Procedure for the 11β-Hydroxysteroid Dehydrogenase Type 1 cortisol Radioimmunoassay (11β HSD1 Cortisol RIA).
30 mM Tris-HCL, pH 7.2 containing 1 mM EDTA.
50 mM Tris-HCL, pH 8, containing 0.1 M NaCl and 0.1% gelatin.
Prepare 10 mM stock solutions in 100% DMSO at 100 times the required assay concentration. Dilute into assay buffer 1 in 25. Also dilute neat DMSO 1 in 25 into assay buffer for controls.
Dilute this 1 in 50 into assay buffer.
Prepare NADPH as a 1.8 mg/ml solution in assay buffer.
Mix these 3solutions 1:1:1 to make a solution of sufficient volume for 25 μl additions to each sample. Add 0.5 μCi tritiated cortisone per 25 μl and mix the solution well.
Dilute stock 20 mg/ml solution 1 in 100 with assay buffer.
Dilute stock antibody solution to 17 μg/ml in antibody binding buffer.
Make a 20 mg/ml solution in antibody binding buffer and chill on ice.
To a u-bottom polypropylene 96 well plate add: • 25 μl compound dilution or diluted DMSO to controls, NSB's and blanks • 10 μl 1 mM GA in DMSO (enzyme stop solution) to blanks • 25 μl substrate mixture to all samples • 50 μl diluted microsomes to all samples • Incubate plate for 30 min at 37° C. shaking p0 Add 10 μl enzyme stop solution to all wells except the blanks • Add 100 μl antibody solution to all wells except the NSB's, add antibody binding buffer to these wells • Incubate at 37° C. for 1 h • Chill plate on ice for 15 min • Add 50 μl/well charcoal solution and mix with an 8-channel pipette (4-5 aspirations) • Chill the plate on ice • Centrifuge at 4° C., 2000×g for 15 min • Transfer 100 μl supernatant into an Optiplate, also add 25 μl substrate mixture to 2 empty wells to indicate counting efficiency • Add 200 μl Microscint-40 to all wells and count on a Topcount Radioimmunoassay
The 11β HSD1 enzyme assay was carried out following the standard operating procedure described above in u-bottom polypropylene 96 well plates or 1.5 ml Eppendorf tubes as indicated for each experiment. Subsequent to stopping the enzyme reaction, 100 μl antibody prepared in buffer 3 unless otherwise indicated was added to test samples and 100 μl buffer 3 was added to the NSB samples. The samples were incubated for 1 hour at 37° C. and the chilled on ice for 15 mins. Dextran coated charcoal (50 μl/sample) prepared to the indicated concentration in buffer 3 was added and the samples were mixed (vortex for tubes and aspiration 5 times with an 8-channel pipette for 96 well plates) and chilled for a further 10 min. The samples were centrifuged at 2000×g for 15 min at 4° C. to pellet the charcoal. Aliquots of the supernatant (100 μl) were transferred to an Optiplate and counted on the Topcount in 150-200 μl Microscint 40. In some experiments, aliquots of supernatant were transferred to scintillation vials and counted on the Tricarb LSC in 5 ml Ultima Gold scintillant.

[1] abbreviates: compound 10 μM, human hepatic microsomes, cortisone 175 nM, typical sd ± 5%, N = 2.

Like-named read-outs stand apart in the source and are kept apart here.

T1 sequence (P28845 whole entry): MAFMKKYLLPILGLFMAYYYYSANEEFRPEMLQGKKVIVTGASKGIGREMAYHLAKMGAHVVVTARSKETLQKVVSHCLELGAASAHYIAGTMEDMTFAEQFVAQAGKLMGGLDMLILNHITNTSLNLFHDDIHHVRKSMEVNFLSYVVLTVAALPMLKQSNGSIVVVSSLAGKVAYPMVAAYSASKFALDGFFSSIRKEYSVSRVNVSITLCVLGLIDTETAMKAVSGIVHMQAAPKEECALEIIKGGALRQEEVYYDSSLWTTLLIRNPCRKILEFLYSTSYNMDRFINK

With `COc1cccc(C(=O)Nc2ccc3sc(C)nc3c2Cl)c1`, the melting point (usually the temperature of the solid-liquid transition) lay in the range of 177 to 179 °C.
Consider `COC(=O)c1cc2cc(NS(=O)(=O)c3cccc(Cl)c3C)ccc2s1` [compound 971], for which, at Human 11β HSD1, the inhibition – broadly, the drop in the measured response relative to a control, in per cent – at 10 µM is 49.6%.
For the compound `Cc1c(Cl)cccc1S(=O)(=O)Nc1ccc2occ(C)c2c1` [compound 972], the inhibition at 10 µM on Human 11β HSD1 is 59.2%.
Consider `Cc1nc2cc(CSc3cc(Cl)ccc3Cl)ccc2s1` [compound 1031], for which the inhibition at 10 µM at Human 11β HSD1 was found to be 45.6%.
The same measure, in the same setting: as for `Cc1c(Cl)cccc1S(=O)(=O)Nc1ccc2c(C)cc(=O)oc2c1` [compound 980], the figure is 61.2%.
In the case of `O=C(NCCc1cccs1)c1cc(Cl)cc(Cl)c1`, the melting point lay in the range of 100 to 102 °C.
Still for that read-out and setting: the result for `COc1cccc(C(=O)Nc2ccc3c(c2)CCC3=O)c1` reads 203 to 204 °C.
On to `COC(=O)c1cc2cc(NS(=O)(=O)c3cccc(Cl)c3C)ccc2o1` [compound 973], for which, on Human 11β HSD1, the inhibition at 10 µM is 33.1%.
The same measure, in the same setting: the result for `Cc1c(Cl)cccc1S(=O)(=O)Nc1ccc2scc(C)c2c1` [compound 1015] reads 64.6%.
Regarding `Cc1nc2cc(NC(=O)c3cc(Cl)cc(Cl)c3)ccc2s1`, the melting point was determined as 194 °C.
Regarding `Cc1ccc2cc(NS(=O)(=O)c3cc(Cl)ccc3Cl)ccc2n1` [compound 937], at Human 11β HSD1, the inhibition at 10 µM was 36.6%.
The same measure, in the same setting: the result for `CC(=O)Nc1ccc(S(=O)(=O)Nc2cc(C)on2)cc1Cl` [compound 645] reads 42%; that for `COc1ccc(S(=O)(=O)Nc2ccc(S(=O)(=O)NCCOS(=O)(=O)c3ccc(OC)cc3)cc2)cc1` [compound 647], 34.5%; that for `Cc1c(Cl)cccc1S(=O)(=O)Nc1ccc2c(c1)C(=O)N(C)C2=O` [compound 979], 54.1%.
On the same count and under the same terms, as for `COc1ccc(S(=O)(=O)Nc2ccc(S(=O)(=O)NCCO)cc2)cc1` [compound 646], the figure is 48.5%.
Same read-out and setting: as for `Cc1noc2ccc(NS(=O)(=O)c3cc(Cl)ccc3Cl)cc12` [compound 876], the figure is 23.6%.
With `O=S(=O)(NCCO)c1ccc(NS(=O)(=O)c2ccc(Cl)cc2Cl)cc1` [compound 653], on Human 11β HSD1, the inhibition at 10 µM is 36.4%.
Take `COc1ccc(C(=O)Nc2ccc3sc(C)nc3c2Cl)cc1`: the melting point is 182 °C.
The same measure, in the same setting: the result for `COC(=O)c1cc2cc(NS(=O)(=O)c3cccc(Cl)c3C)ccc2o1` reads 168 to 168.4 °C.
Same read-out and setting: as for `COc1cccc(CC(=O)Nc2ccc3sc(C)nc3c2Cl)c1`, the figure is 147 to 148 °C.
Regarding `CC1(C)[C@@H](OC(=O)CCC(=O)O)CC[C@]2(C)[C@H]3C(=O)C=C4[C@@H]5C[C@@](C)(C(=O)O)CC[C@]5(C)CC[C@@]4(C)[C@]3(C)CC[C@@H]12` [carbenoxolone, Carbenoxolone, reference compound], on Human 11β HSD1 (350 nM cortisone, 0.3% DMSO, RIA buffer (Buffer 3) (FIG. 23)), the “times more active than is suggested by Barf et al. [14]” value is listed as “about 5 times”.
With `CCCc1ccc(S(=O)(=O)Nc2ccc3nc(C)cnc3c2)cc1` [compound 956], at Human 11β HSD1, the inhibition at 10 µM stood at 64.8%.
Same read-out and setting: as for `CCCc1ccc(S(=O)(=O)Nc2ccc(OC)nc2)cc1` [compound 577], the figure is 54.6%.
For the compound `COc1ccc(C(=O)Nc2ccc3c(c2)CCC3=O)cc1`, the melting point was in the range of 237 to 238 °C.
On the same count and under the same terms, as for `COc1ccc(C(=O)NCCc2cccs2)cc1`, the figure is 109 to 111 °C.
On to `COc1ccc(S(=O)(=O)Nc2ccc(S(=O)(=O)Nc3cc(C)on3)cc2)cc1` [compound 555], for which, at Human 11β HSD1, the inhibition at 10 µM turned out to be 53%.
For `Cc1cc(NS(=O)(=O)c2ccc(NS(=O)(=O)c3ccc(Cl)cc3Cl)cc2)no1` [compound 644], on Human 11β HSD1, the inhibition at 10 µM amounted to 37.1%.
For `CCCc1ccc(C(=O)Nc2ccc3c(c2)CCCC3=O)cc1`, the melting point fell in the range of 168 to 170 °C.
As to `CCCc1ccc(S(=O)(=O)Nc2ccc3nccnc3c2)cc1` [compound 958], on Human 11β HSD1, the inhibition at 10 µM stood at 58.1%.
Turning to `CC(=O)c1ccc(NC(=O)c2cc(Cl)cc(Cl)c2)cc1`, the melting point lay in the range of 199 to 200 °C.
Take `CCCc1ccc(S(=O)(=O)Nc2ccc3nc(C)ccc3c2)cc1` [compound 936]: the inhibition at 10 µM on Human 11β HSD1 is 42.3%.
With `CCCc1ccc(S(=O)(=O)N(CC2CCNCC2)S(=O)(=O)c2ccc(CCC)cc2)cc1` [compound 576], on Human 11β HSD1 (setting [1]), the inhibition at 10 µM came to 47.7%.
Consider `Cc1cc(NS(=O)(=O)c2cc(Cl)ccc2Cl)no1` [compound 823], for which the inhibition at 10 µM on Human 11β HSD1 was found to be 42.9%.
Turning to `Cc1nc2c(Cl)c(NC(=O)c3cc(Cl)cc(Cl)c3)ccc2s1`, the melting point lay in the range of 252 to 253 °C.
As for `COc1ccc(S(=O)(=O)Nc2ccc(S(=O)(=O)NCCO)cc2)cc1OC` [compound 649], the inhibition at 10 µM at Human 11β HSD1 is 26.3%.
Take `Cc1cc2cc(NS(=O)(=O)c3cccc(Cl)c3C)ccc2o1` [compound 1038]: on Human 11β HSD1, the inhibition at 10 µM turned out to be 28.7%.
Turning to `CCCc1ccc(S(=O)(=O)Nc2ccc3oncc3c2)cc1` [compound 919], the inhibition at 10 µM at Human 11β HSD1 amounted to 25.4%.
As to `Cc1ccc2cc(NS(=O)(=O)c3cccc(Cl)c3C)ccc2n1` [compound 935], the inhibition at 10 µM on Human 11β HSD1 was found to be 20.7%.
Take `CCCc1ccc(C(=O)Nc2ccc3sc(C)nc3c2)cc1` [compound 471]: at Human 11β HSD1, the inhibition at 10 µM was 53.7%.
Consider `Cc1c(Cl)cccc1S(=O)(=O)Nc1ccc2nccnc2c1` [compound 957], for which the inhibition at 10 µM on Human 11β HSD1 was found to be 55.5%.
Take `CC(=O)Nc1ccc(S(=O)(=O)Nc2cc(C)on2)cc1` [compound 606]: the inhibition at 10 µM at Human 11β HSD1 (setting [1]) was determined as 22.1%.
On to `Cc1cc(NS(=O)(=O)c2ccc(N)c(Cl)c2)no1` [compound 654], for which the inhibition at 10 µM on Human 11β HSD1 was 32.1%.
Still for that read-out and setting: the result for `Cc1c(Cl)cccc1S(=O)(=O)Nc1ccc2c(c1)OCCO2` [compound 990] reads 73.3%.
Same read-out and setting: the result for `Cc1c(Cl)cccc1S(=O)(=O)Nc1ccc2c(c1)-c1ccccc1C2=O` [compound 1033] reads 62.6%; that for `Cc1c(Cl)cccc1S(=O)(=O)Nc1ccc2[nH]ncc2c1` [compound 983], 41.9%.
On the same count and under the same terms, as for `Cc1nc2cc(NC(=O)c3cc(Cl)cc(Cl)c3)ccc2s1` [compound 520], the figure is 43.5%; as for `COc1cccc(NC(=O)Nc2ccc(S(=O)(=O)Nc3cc(C)on3)cc2)c1` [compound 556], 46.2%.
For the compound `COc1cc(C)c(S(=O)(=O)Nc2ccc(S(=O)(=O)NCCOS(=O)(=O)c3c(C)cc(OC)c(C)c3C)cc2)c(C)c1C` [compound 652], the inhibition at 10 µM on Human 11β HSD1 came to 31.8%.
Still for that read-out and setting: as for `CC(=O)Nc1ccc(S(=O)(=O)NNC(=O)CSc2ncnc3c(C)csc23)cc1` [compound 557], the figure is 51.3%; as for `CC(=O)Nc1nsc2ccc(NS(=O)(=O)c3cccc(Cl)c3C)cc12` [compound 929], 31%.
On to `Cc1cc(NS(=O)(=O)c2cccc(Cl)c2C)no1` [compound 825], for which, on Human 11β HSD1, the inhibition at 10 µM amounted to 23.2%.
On the same count and under the same terms, the result for `CCCc1ccc(C(=O)N(C)c2ccc3sc(C)nc3c2)cc1` [compound 472] reads 71.4%; that for `COc1ccc(S(=O)(=O)Nc2ccc(S(=O)(=O)Nc3nc(C)cc(C)n3)cc2)cc1OC` [compound 558], 31.2%; that for `O=S(=O)(Nc1ccc2oncc2c1)c1cc(Cl)ccc1Cl` [compound 920], 27.5%.
On the same count and under the same terms, as for `Cc1cnc2cc(NS(=O)(=O)c3cccc(Cl)c3C)ccc2n1` [compound 955], the figure is 60.8%.
On to `Cc1c(Cl)cccc1S(=O)(=O)Nc1ccc2c(cnn2C)c1` [compound 988], for which the inhibition at 10 µM at Human 11β HSD1 worked out at 56%.
Consider `CCCc1ccc(S(=O)(=O)NCc2ccccn2)cc1` [compound 702], for which, on Human 11β HSD1, the inhibition at 10 µM came to 37.6%.
